Structures are written as SMILES. Values after ≈ are worked out from the molar mass of the structure shown. Bounds are passed on as bounds.

One assay has as its system Aspergillus fumigatus. The assay can be described thus: Minimum inhibitory concentration against Aspergillus fumigatus. Format: functional.
The test system of a further assay is Candida parapsilosis. The assay can be described thus: Minimum inhibitory concentration against Candida parapsilosis. The format is functional. Conditions: Lodderomyces parapsilosis.
The test system of the next assay is Cryptococcus neoformans. Nature of the assay: Minimum inhibitory concentration against Cryptococcus neoformans. The format is functional.
Assay [1] relates to Mycobacterium tuberculosis. The assay can be described thus: Minimum inhibitory concentration against Mycobacterium tuberculosis. The format is functional.
Assay [2] deals with Mycobacterium tuberculosis. The assay can be described thus: In vito growth of Mycobacterium tuberculosis BC-248 strain after 6 weeks; + indicates 1-20 colonies. The format is functional, organism-based.
The next assay concerns Trichophyton benhamiae. The assay can be described thus: Minimum inhibitory concentration against Trichophyton mentagrophytes. The format is functional, Arthroderma benhamiae.
The next assay deals with Candida albicans. The assay can be described thus: Minimum inhibitory concentration against Candida albicans. The format is functional.
Another assay deals with Sporothrix schenckii. The assay can be described thus: Minimum inhibitory concentration against Sporothrix schenckii.
The test system of assay [3] is Mycobacterium tuberculosis. Nature of the assay: In vito growth of Mycobacterium tuberculosis BC-437 strain after 6 weeks; - indicates no growth. Format: functional, organism-based.
The subject of assay [4] is Mycobacterium tuberculosis. The assay can be described thus: In vito growth of Mycobacterium tuberculosis VA-101 strain after 6 weeks; […] colonies. Format: functional, organism-based.
Assay [5] concerns Mycobacterium tuberculosis. The assay can be described thus: In vito growth of Mycobacterium tuberculosis BC-243 strain after 6 weeks; - indicates no growth. Format: functional, organism-based.
Assay [6] relates to Mycobacterium tuberculosis. Nature of the assay: In vito growth of Mycobacterium tuberculosis BC-248 strain after 6 weeks; - indicates no growth. Format: functional, organism-based.
In assay [7] the test system is Mycobacterium tuberculosis. Nature of the assay: In vito growth of Mycobacterium tuberculosis BC-426 strain after 6 weeks; - indicates no growth. The format is functional, organism-based.

Broadly, the MIC is the lowest concentration found to suppress growth. Read a low MIC as greater potency. For `CC1(C)O[C@@H]2OC(COCC(O)CNCCCCCCCCCCCCNCC(O)COCC3O[C@@H]4OC(C)(C)O[C@@H]4[C@H]4OC(C)(C)O[C@@H]34)[C@H]3OC(C)(C)O[C@H]3[C@@H]2O1` (stereo partly specified), the minimum inhibitory concentration (MIC) in the assay with Aspergillus fumigatus is greater than 50 µg/mL; in the assay with Candida parapsilosis it was greater than 50 µg/mL; in the assay on Cryptococcus neoformans, 12.5 µg/mL (≈ 15 µM); in [1], 1.56 µg/mL (≈ 1.87 µM); in the assay with Trichophyton benhamiae it was 50 µg/mL (≈ 60 µM); in the assay on Candida albicans, greater than 50 µg/mL. Further, the minimal inhibitory concentration (MIC) against Sporothrix schenckii is greater than 50 µg/mL. In addition, the Growth in assay [2] is on record as 1-20 colonies.
As to `CC1(C)O[C@H]2OC(COCC(O)CN3CCOCC3)[C@@H]3OC(C)(C)O[C@@H]3[C@H]2O1` (stereo partly specified), the MIC with Aspergillus fumigatus is greater than 50 µg/mL; against Candida parapsilosis, greater than 50 µg/mL; with Cryptococcus neoformans, 25 µg/mL (≈ 62 µM); in assay [1], greater than 50 µg/mL; against Trichophyton benhamiae it was 50 µg/mL (≈ 124 µM); in the assay on Candida albicans it was greater than 50 µg/mL. Also, the minimal inhibitory concentration (MIC) with Sporothrix schenckii is greater than 50 µg/mL.
Take `CCCCCCCCCCCCNCC(O)COCC1O[C@@H]2OC(C)(C)O[C@@H]2[C@H]2OC(C)(C)O[C@@H]12` (stereo partly specified): the minimal inhibitory concentration (MIC) stood at 6.25 µg/mL (≈ 12.5 µM) with Aspergillus fumigatus; 25 µg/mL (≈ 49.8 µM) in the assay with Candida parapsilosis; 1.56 µg/mL (≈ 3.11 µM) against Cryptococcus neoformans; 12.5 µg/mL (≈ 24.9 µM) in [1]; 6.25 µg/mL (≈ 12.5 µM) against Trichophyton benhamiae; 12.5 µg/mL (≈ 24.9 µM) against Candida albicans. The same compound returned an MIC against Sporothrix schenckii of 6.25 µg/mL (≈ 12.5 µM).
On to `CC(=O)N1CCN(c2ccc(OC[C@H]3CO[C@](Cn4ccnc4)(c4ccc(Cl)cc4Cl)O3)cc2)CC1` [KETOCONAZOLE], for which the MIC with Aspergillus fumigatus came to 0.25 µg/mL (≈ 0.47 µM); with Candida parapsilosis, 0.12 µg/mL (≈ 0.226 µM); with Cryptococcus neoformans, 0.12 µg/mL (≈ 0.226 µM); in the assay on Trichophyton benhamiae, 0.25 µg/mL (≈ 0.47 µM); against Candida albicans, 0.001 µg/mL (≈ 0.00188 µM); against Sporothrix schenckii, 0.5 µg/mL (≈ 0.941 µM).
Consider `CC1(C)O[C@H]2OC(COCC(O)CNCc3ccccc3)[C@@H]3OC(C)(C)O[C@@H]3[C@H]2O1` (stereo partly specified), for which the MIC is greater than 50 µg/mL in the assay with Aspergillus fumigatus; greater than 50 µg/mL against Candida parapsilosis; 25 µg/mL (≈ 59 µM) with Cryptococcus neoformans; greater than 50 µg/mL in assay [1]; 50 µg/mL (≈ 118 µM) against Trichophyton benhamiae; greater than 50 µg/mL in the assay with Candida albicans. The compound further had a minimum inhibitory concentration (MIC) in the assay with Sporothrix schenckii greater than 50 µg/mL.
Regarding `CC1(C)O[C@H]2OC(COCC(O)CNCc3ccco3)[C@@H]3OC(C)(C)O[C@@H]3[C@H]2O1` (stereo partly specified), the minimal inhibitory concentration (MIC) is greater than 50 µg/mL in the assay with Aspergillus fumigatus; greater than 50 µg/mL with Candida parapsilosis; 25 µg/mL (≈ 60.5 µM) against Cryptococcus neoformans; greater than 50 µg/mL in assay [1]; 50 µg/mL (≈ 121 µM) in the assay on Trichophyton benhamiae; greater than 50 µg/mL in the assay with Candida albicans. The MIC against Sporothrix schenckii was greater than 50 µg/mL.
Turning to `CCCCCCCC/C=C/CCCCCCCCNCC(O)COCC1O[C@@H]2OC(C)(C)O[C@@H]2[C@H]2OC(C)(C)O[C@@H]12` (stereo partly specified), the MIC is 50 µg/mL (≈ 85.6 µM) in the assay with Aspergillus fumigatus; greater than 50 µg/mL with Candida parapsilosis; 6.25 µg/mL (≈ 10.7 µM) with Cryptococcus neoformans; 12.5 µg/mL (≈ 21.4 µM) in assay [1]; 25 µg/mL (≈ 42.8 µM) in the assay with Trichophyton benhamiae; 50 µg/mL (≈ 85.6 µM) against Candida albicans. The MIC against Sporothrix schenckii was 50 µg/mL (≈ 85.6 µM).
For the compound `CC1(C)O[C@H]2OC(COCC(O)CN3CCCC3)[C@@H]3OC(C)(C)O[C@@H]3[C@H]2O1` (stereo partly specified), the minimal inhibitory concentration (MIC) in the assay with Aspergillus fumigatus is greater than 50 µg/mL; against Candida parapsilosis, greater than 50 µg/mL; against Cryptococcus neoformans it was 25 µg/mL (≈ 64.5 µM); in [1], greater than 50 µg/mL; with Trichophyton benhamiae it was 50 µg/mL (≈ 129 µM); in the assay on Candida albicans, greater than 50 µg/mL. Moreover, the minimum inhibitory concentration (MIC) in the assay with Sporothrix schenckii is greater than 50 µg/mL.
Turning to `CC1(C)O[C@@H]2OC(COCC(O)CNCCCCCCCCCCNCC(O)COCC3O[C@@H]4OC(C)(C)O[C@@H]4[C@H]4OC(C)(C)O[C@@H]34)[C@H]3OC(C)(C)O[C@H]3[C@@H]2O1` (stereo partly specified), the minimal inhibitory concentration (MIC) against Aspergillus fumigatus is greater than 50 µg/mL; in the assay on Candida parapsilosis it was greater than 50 µg/mL; against Cryptococcus neoformans, 12.5 µg/mL (≈ 15.5 µM); in assay [1], greater than 50 µg/mL; in the assay with Trichophyton benhamiae it was 50 µg/mL (≈ 62.1 µM); against Candida albicans it was greater than 50 µg/mL. This compound also yielded an MIC with Sporothrix schenckii greater than 50 µg/mL.
As to `CC1(C)O[C@@H]2OC(COCC(O)CNCCCNCC(O)COCC3O[C@@H]4OC(C)(C)O[C@@H]4[C@H]4OC(C)(C)O[C@@H]34)[C@H]3OC(C)(C)O[C@H]3[C@@H]2O1` (stereo partly specified), the minimum inhibitory concentration (MIC) in the assay on Aspergillus fumigatus is greater than 50 µg/mL; against Candida parapsilosis, greater than 50 µg/mL; against Cryptococcus neoformans it was 25 µg/mL (≈ 35.4 µM); in [1] it was greater than 50 µg/mL; against Trichophyton benhamiae it was 50 µg/mL (≈ 70.7 µM); against Candida albicans it was greater than 50 µg/mL. This compound also had a minimum inhibitory concentration (MIC) with Sporothrix schenckii greater than 50 µg/mL.
Turning to `CC1(C)O[C@H]2OC(COCC(O)CN3CCCCC3)[C@@H]3OC(C)(C)O[C@@H]3[C@H]2O1` (stereo partly specified), the minimum inhibitory concentration (MIC) was greater than 50 µg/mL in the assay on Aspergillus fumigatus; greater than 50 µg/mL in the assay with Candida parapsilosis; 25 µg/mL (≈ 62.3 µM) with Cryptococcus neoformans; greater than 50 µg/mL in assay [1]; 50 µg/mL (≈ 125 µM) with Trichophyton benhamiae; greater than 50 µg/mL in the assay on Candida albicans. The same compound gave an MIC against Sporothrix schenckii greater than 50 µg/mL.
As for `C[C@@H]1CN(c2c(F)c(N)c3c(=O)c(C(=O)O)cn(C4CC4)c3c2F)C[C@H](C)N1`, the Growth entry in [3] is “No growth”; in assay [4], 1-20 colonies; in assay [5], “No growth”; in assay [6] it was “No growth”; in assay [7] it was “No growth”.
As to `CC1(C)O[C@@H]2OC(COCC(O)CNCCCCCCCCCNCC(O)COCC3O[C@@H]4OC(C)(C)O[C@@H]4[C@H]4OC(C)(C)O[C@@H]34)[C@H]3OC(C)(C)O[C@H]3[C@@H]2O1` (stereo partly specified), the minimum inhibitory concentration (MIC) with Aspergillus fumigatus was greater than 50 µg/mL; with Candida parapsilosis, greater than 50 µg/mL; in the assay with Cryptococcus neoformans it was 25 µg/mL (≈ 31.6 µM); in assay [1], greater than 50 µg/mL; against Trichophyton benhamiae, 50 µg/mL (≈ 63.2 µM); against Candida albicans, greater than 50 µg/mL. The MIC against Sporothrix schenckii is greater than 50 µg/mL.
`CC1(C)O[C@@H]2OC(COCC(O)CNCCCCCCCNCC(O)COCC3O[C@@H]4OC(C)(C)O[C@@H]4[C@H]4OC(C)(C)O[C@@H]34)[C@H]3OC(C)(C)O[C@H]3[C@@H]2O1` (stereo partly specified): the MIC in the assay on Aspergillus fumigatus was greater than 50 µg/mL; in the assay on Candida parapsilosis, greater than 50 µg/mL; against Cryptococcus neoformans, 50 µg/mL (≈ 65.5 µM); in assay [1], greater than 50 µg/mL; against Trichophyton benhamiae it was 50 µg/mL (≈ 65.5 µM); against Candida albicans, greater than 50 µg/mL. The same compound registered an MIC in the assay on Sporothrix schenckii greater than 50 µg/mL.
On to `CCCCCCCCCCCCCCCCNCC(O)COCC1O[C@@H]2OC(C)(C)O[C@@H]2[C@H]2OC(C)(C)O[C@@H]12` (stereo partly specified), for which the MIC with Aspergillus fumigatus was 25 µg/mL (≈ 44.8 µM); against Candida parapsilosis, 25 µg/mL (≈ 44.8 µM); in the assay with Cryptococcus neoformans it was 6.25 µg/mL (≈ 11.2 µM); in assay [1], 12.5 µg/mL (≈ 22.4 µM); in the assay on Trichophyton benhamiae, 12.5 µg/mL (≈ 22.4 µM); in the assay with Candida albicans it was 25 µg/mL (≈ 44.8 µM). This compound also showed a minimum inhibitory concentration (MIC) in the assay with Sporothrix schenckii of 25 µg/mL (≈ 44.8 µM).
Turning to `CC1(C)O[C@H]2OC(COCC(O)CN3CCN(c4cccc(Cl)n4)CC3)[C@@H]3OC(C)(C)O[C@@H]3[C@H]2O1` (stereo partly specified), the minimal inhibitory concentration (MIC) is greater than 50 µg/mL with Aspergillus fumigatus; greater than 50 µg/mL with Candida parapsilosis; 12.5 µg/mL (≈ 24.3 µM) against Cryptococcus neoformans; greater than 50 µg/mL in [1]; 25 µg/mL (≈ 48.6 µM) in the assay with Trichophyton benhamiae; greater than 50 µg/mL with Candida albicans. The same compound showed an MIC with Sporothrix schenckii greater than 50 µg/mL.
In [1], `CC[C@@H](CO)NCCN[C@@H](CC)CO` [ETHAMBUTOL] came in with an MIC of 3.25 µg/mL (≈ 15.9 µM).

(Values after ChEMBL document CHEMBL1147414, “Synthesis of galactopyranosyl amino alcohols as a new class of antitubercular and antifungal agents” (2004).)
